Read-outs that look alike come from different tables or passages of the source.
Tests used:
[1] = in vivo; cited from earlier work
[2] = Pharmacokinetic determination in SD rats; details: rat, in vivo, po, male SD rats, p.o. 5 mg/kg; for MRT inf: read-out: MRT 0-∞
In short: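 Male SD rats, fasted overnight, received 5 mg/kg p.o. as a 0.5 mg/mL suspension in 0.5% CMC-Na with 1% Tween 80. Cardiac plasma and brain were collected from 0.25 to 24 h post-dose. Concentrations were measured by LC/MS/MS after acetonitrile precipitation or homogenisation, and PK parameters were derived by noncompartmental-software analysis.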

[3] = molecular target: T1, M4 receptor (Homo sapiens, UniProt P08173); assay: Calcium flux (FLIPR) potentiation assay in cells stably expressing M4 receptor; assay type: cell-based
T1 construct: expressed in transfected cells
T1 sequence (P08173 1-479): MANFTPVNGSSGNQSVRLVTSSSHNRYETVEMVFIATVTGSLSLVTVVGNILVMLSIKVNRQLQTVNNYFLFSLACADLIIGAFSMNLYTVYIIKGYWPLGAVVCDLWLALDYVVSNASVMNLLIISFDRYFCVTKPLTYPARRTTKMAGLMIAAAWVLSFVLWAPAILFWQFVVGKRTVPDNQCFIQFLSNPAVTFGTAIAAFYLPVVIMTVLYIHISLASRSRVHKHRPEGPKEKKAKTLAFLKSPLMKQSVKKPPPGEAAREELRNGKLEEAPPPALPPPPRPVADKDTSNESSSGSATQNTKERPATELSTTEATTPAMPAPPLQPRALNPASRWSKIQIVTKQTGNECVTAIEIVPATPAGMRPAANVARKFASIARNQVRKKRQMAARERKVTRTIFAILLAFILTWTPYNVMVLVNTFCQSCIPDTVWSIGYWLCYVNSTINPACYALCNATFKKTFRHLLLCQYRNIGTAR
In short: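 CHO-K1 cells co-expressing Gα15, loaded with Calcium 6 dye 1 h at room temperature, preincubated 2 min with compound ([…]), then challenged with acetylcholine at EC20. Peak fluorescence expressed as % activation between DMSO and ACh EC100 controls.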

[4] = Pharmacokinetic determination in Balb/c mice; details: mouse, in vivo, po, male Balb/c mice, p.o. 5 mg/kg; for MRT inf: read-out: MRT 0-∞
Method: To investigate the pharmacokinetic behaviours of the example compounds in both plasma and brain of Balb/c mice (test animals) following oral administration at a dose of 5 mg/kg.
2.1 Test drugs: The example compounds of the present invention, made in house.
2.2 Test animals: Balb/c Mouse, male.
24 Balb/c mice, male; p.o. respectively at a dose of 5 mg/kg and an administration volume of 10 mL/kg after the mice were fasted overnight.
Formulation of a drug for oral administration: 0.5% CMC-Na (1% Tween 80).
0.50 g of sodium carboxymethyl cellulose (CMC-Na, viscosity: 800-1200 Cps) was weighed and dissolved in 99 mL of purified water, and 1 ml of Tween 80 was added. The components were mixed thoroughly under stirring to form a clear solution.
The example compound was weighed into a 4-mL glass vial, 2.4 mL of the solution was added, and the mixture was subjected to ultrasound treatment for 10 minutes to obtain a homogeneous suspension with a concentration of 0.5 mg/mL.
After the test animals were euthanised by CO2, blood samples were collected from the heart and brain tissues were harvested at 0.25 h, 0.5 h, 1 h, 2 h, 4 h, 6 h, 8 h, and 24 h post-dose. Blood was placed in EDTA-2K tubes, and centrifuged at 6000 rpm for 6 min at 4°C to separate the plasma. Brain tissues were rinsed with pre-cold PBS, blotted dry, and weighed. Both plasma and brain samples were stored at -80°C. The animals were fed 4 h after administration.
• 1) 40 uL of plasma sample was precipitated with 160 uL of acetonitrile, mixed, and centrifuged at 3500 × g for 5-20 min. Brain tissues were diluted, homogenised and centrifuged. • 2) 100 uL of the treated supernatant solution was taken for LC/MS/MS analysis to determine the concentration of the test compounds.
• Liquid phase conditions: Shimadzu LC-20AD pump • Mass spectrometry conditions: AB Sciex API 4000 mass spectrometer • Chromatographic column: Phenomenex Gemiu 5 um C18 50 × 4.6 mm • Mobile phase: solution A: 0.1% formic acid in water, solution B: acetonitrile • Flow rate: 0.8 mL/min • Elution time: 0-4.0 min, with eluents as follows:
The main pharmacokinetic parameters were calculated using WinNonlin 8.1.

[5] = six weeks of dosing, cited from earlier work
[6] = CHO-K1/M4/Gα15 cells, potentiation of acetylcholine (EC20) calcium flux, read-out: M4 FLIPR EC50

SMILES | learning deficits induced by the NMDA receptor antagonist MK-801 [1] | AUC(0-inf) [2] [ng·h/mL] | Cmax [2] [ng/mL] | Tmax [2] [h] | MRT inf [2] [h] | EC50 [3, 6] [nM] | AUC(0-inf) [4] [ng·h/mL] | Cmax [4] [ng/mL] | Tmax [4] [h] | MRT inf [4] [h] | EC50 [3] [nM] | mean reduction in the Positive and Negative Syndrome Scale (PANSS) total score from baseline ([5]; 20 mg twice daily) [points] | mean reduction in the Positive and Negative Syndrome Scale (PANSS) total score from baseline ([5]; 30 mg once daily) [points]
Cc1nnc2sc(C(=O)NCc3ccc(S(=O)(=O)C(F)(F)F)cc3)c(N)c2c1C [VU0467154] | improved learning deficits |  |  |  |  |  |  |  |  |  |  |  | 
Cc1c2c(c3ncnn3c1C)CN(C(=O)CC1CN(c3ncc(C(F)(F)F)cn3)C1)C2 [Example 144, 1-(5,6-Dimethyl-7,9-dihydro-8H-pyrrolo[3,4-c][1,2,4]triazolo[1,5-a]pyridin-8-yl)-2-(1-(5-(trifluoromethyl)pyrimidin-2-yl)azetidin-3-yl)ethan-1-one] |  | 11000 | 1710 | 2 | 4.6 | 85.8 | 4790 | 1890 | 0.5 | 1.4 |  |  | 
Cc1c2c(c3ncnn3c1C)CN(C(=O)OC1CN(c3ccnc(C(F)F)c3)C1)C2 [Example 122] |  | 34800 | 3110 | 2 | 5.8 |  | 6130 | 1550 | 0.5 | 2.6 |  |  | 
Cc1cn2nc(N3CC(OC(=O)N4Cc5c(C)c(C)n6ncnc6c5C4)C3)ccc2n1 [Example 105] |  | 16300 | 2680 | 1 | 4.3 |  | 10200 | 1570 | 0.5 | 4.3 | 19.9 |  | 
Cc1cc(C)c2c(n1)CN(C(=O)CC1CN(c3ccnc(C(F)(F)F)c3)C1)C2 [CVL-231] |  |  |  |  |  |  |  |  |  |  |  | 17.9 | 19.5
Cc1c2c(c3ncnn3c1C)CN(C(=O)CC1CN(c3ccnc(OC(F)F)c3)C1)C2 [Example 52] |  | 10800 | 2450 | 2 | 2.6 | 13.9 | 2540 | 1950 | 0.25 | 1.2 |  |  | 
Cc1c2c(c3ncnn3c1C)CN(C(=O)OC1CN(c3ccnc(C(F)(F)F)c3)C1)C2 [Example 32, 1-(2-(Trifluoromethyl)pyridin-4-yl)azetidin-3-yl 5,6-dimethyl-7,9-dihydro-8H-pyrrolo[3,4-c][1,2,4]triazolo[1,5-a]pyridine-8-carboxylate] |  | 17500 | 4520 | 2 | 2.7 | 72.4 | 7370 | 2560 | 0.5 | 2.5 |  |  | 
Cc1c2c(c3ncnn3c1C)CN(C(=O)OC1CN(c3ccnc(OC(F)F)c3)C1)C2 [Example 123] |  | 12200 | 2530 | 2 | 3.5 |  | 4160 | 1040 | 0.5 | 3.8 |  |  | 
